Key:
ZAP70 = target: T1, ZAP70 (Homo sapiens, UniProt P43403); assay: Off-target screen ZAP70; format: biochemical; conditions: 10 µM; single point, duplicates
T1 construct: purchased Eurofins CEREP SA

Histamine H2 receptor = target: T2, Histamine H2 receptor (Homo sapiens, UniProt P25021); assay: Off-target screen Histamine H2; format: binding; conditions: 10 µM; single point, duplicates
T2 construct: purchased Eurofins CEREP SA

I/R model rats = assay: Retinal ischemia/reperfusion (I/R) model; format: in vivo, rat; conditions: for ERG b-wave amplitude: I/R + ATX-i eyes vs control; for ERG a-wave amplitude: I/R + ATX-i group vs control
Method: Diets containing compound 13 were manufactured by ssniff Spezialdiäten GmbH (Soest, Germany). Calculations of the daily doses were based on average food intake of rats used in the studies. The regular chow diet for the 60 mg/kg dose was calculated as 8.5 kg and mixed with a solution of 13 in ethanol (4.8%, w/w). The amount of 13 used was 1.0 g per kg of food. After mixing, ethanol was removed in vacuo until dryness. For the preparation of the 20 mg/kg dose, the same procedure was used by applying 0.333 g of 13 per kg of food.
The oral treatment with the ATX-inhibitor 13 (ATX-i; 20 mg/kg; Roche) started 7 days prior to immunization and 3 days prior I/R induction and continued throughout the study. The regular chow diet for the treatment groups was replaced with the same chow diet containing the treatment substance.
An established I/R model was used ([Schmid et al., 2014]; [Renner et al., 2017]). Therefore, rats were anesthetized with a ketamine/xylazine/vetranquil cocktail (0.65/0.65/0.2 ml). One eye per animal was dilated with 5% tropicamide (Pharma Stulln, Stulln, Germany) and anesthetized topically with conjuncain (Bausch and Lomb, Berlin, Germany). Additionally, a pain medication injection of metamizole (Novalgin; Zentiva, Frankfurt am Main, Germany) was administered subcutaneously. IOP was raised to 140 mmHg for 60 min by elevating a saline reservoir connected to a needle, which was placed into the anterior chamber of the eye. Retinal ischemia was confirmed by observing whitening of the retina via an ophthalmoscope (Mini 300; Heine Optotechnik, Herrsching, Germany). Reperfusion was later reassured by observing the returning blood flow. The contralateral eye was used as a control. Analyses were performed 7 and 14 days after ischemia induction.
ERG measurements were performed on all eyes 7 and 14 days after I/R induction as previously described ([Schmid et al., 2014]; [Palmhof et al., 2018]). Before performing the ERG under dim red light, rats were dark adapted overnight. The readings were done using a full-field flash electroretinograph (HMs ERG system, OcuScience, Henderson, NV, United States). After anesthesia with a ketamine/xylazine cocktail (100/4 mg/kg) eyes were dilated and topically anesthetized. Reference electrodes were placed subcutaneously below the right and left ear and a ground electrode was placed in the base of the tail. Silver thread recording electrodes were placed in the center of the cornea. Scotopic flash ERGs were recorded at 0.1, 0.3, 1, 3, 10, and 25 cd*s/m^2 for each eye (7 days: 5-6 eyes/group; 14 days: 6-7 eyes/group). Signals obtained from the corneal surface were then amplified, digitized, and averaged using ERG View 4.380R software (OcuScience).
After explantation, eyes and optic nerves were fixed in 4% paraformaldehyde for 60 min (eyes) or 120 min (optic nerves) and then treated with 30% sucrose overnight. Afterwards, the retinas and optic nerves were embedded in NEG-50 Tissue-Tek medium (Thermo Fisher, Waltham, MA, United States). Cryo-cross sections of the eyes (10 µm) or longitudinal sections of the optic nerves (4 µm) were cut on a microtome (Thermo Fisher), mounted on Histobond Superfrost^+ slides (Thermo Fisher) and fixed in ice cold acetone for 10 min.
Retinal cross-sections from the I/R studies were stained with hematoxylin and eosin (H&E) to visualize retinal layers and changes in the thickness of the layers using standard protocols (7 days: 5-6 retinas/group; 14 days: 6-7 retinas/group). The thickness of the ganglion cell layer (GCL) was analyzed with the measuring tool of the ZEN2012 image analysis software (Zeiss, Oberkochen, Germany). Therefore, they were measured three times and the value was averaged ([Palmhof et al., 2019]).
Longitudinal optic nerve sections (EAG: 5-6 nerves/group, I/R 14 days: 6-7 nerves/group) were stained with H&E and luxol fast blue (LFB). […]

S1P1 = target: T3, S1P1 (Homo sapiens, UniProt P21453); assay: Off-target screen S1P1, agonist mode; format: cell-based; conditions: 10 µM, single point, duplicates
T3 construct: purchased Eurofins CEREP SA

Adenosine A1 respetor = target: T4, Adenosine A1 respetor (Homo sapiens, UniProt P30542); assay: Off-target screen Adenosine A1; format: binding; conditions: 10 µM; single point, duplicates
T4 construct: purchased Eurofins CEREP SA

[1] = target: T5, Norepinephrine transporter (Homo sapiens, UniProt P23975); assay: Off-target screen Norepinephrine transporter; format: binding; conditions: 10 µM; single point, duplicates
T5 construct: purchased Eurofins CEREP SA

Sigma = assay: Off-target screen Sigma; conditions: 10 µM; single point, duplicates
Dopamine D2 receptor = target: T6, Dopamine D2 receptor (Homo sapiens, UniProt P14416); assay: Off-target screen Dopamine D2; format: binding; conditions: 10 µM; single point, duplicates
T6 construct: purchased Eurofins CEREP SA

5HT1A = target: T7, 5HT1A (Homo sapiens, UniProt P08908); assay: Off-target screen 5HT1A; format: binding; conditions: 10 µM; single point, duplicates
T7 construct: purchased Eurofins CEREP SA

plasma ATX = plasma ATX (Rattus norvegicus, UniProt Q64610); assay: in vivo
Method: Plasma samples were collected in triplicates at 0, 1, 3, 6, and 24 h and were added to heparinated tubes and kept at 0°C until further processing. Sampling and immediate processing at 0°C is crucial for the measurements of basal levels, since at higher temperatures, LPA is produced rapidly according to the ATX activity in the sample. […] The other 2 aliquots were used to determine ATX activity by incubation of the sample at 37°C for 4 h, followed again by analysis of LPA levels in the same way as for the basal LPA levels.
For all doses (3, 10, and 30 mg/kg po), 5 animals/group were used. […] Values are mean ± SD.
To better observe the modulation of the individual LPA species, a second set of plasma samples was incubated at 37°C for 2 h prior to LC/MS analysis.

Cyclooxygenase 2 = target: T8, Cyclooxygenase 2 (Homo sapiens, UniProt P35354); assay: Off-target screen Cyclooxygenase 2; format: biochemical; conditions: 10 µM; single point, duplicates
T8 construct: purchased Eurofins CEREP SA

HIV-1 protease = assay: Off-target screen HIV-1 protease; conditions: 10 µM; single point, duplicates
ML3R = assay: Off-target screen ML3R; conditions: 10 µM; single point, duplicates
Carbonic anhdrase II = target: T9, Carbonic anhdrase II (Homo sapiens, UniProt P00918); assay: Off-target screen Carbonic anhydrase II; format: biochemical; conditions: 10 µM; single point, duplicates
T9 construct: purchased Eurofins CEREP SA

[2] = test system: GABA-A (benzodiazepine site); assay: Off-target screen GABA-A (benzodiazepine site); conditions: 10 µM; single point, duplicates
S1P2 = target: T10, S1P2 (Homo sapiens, UniProt O95136); assay: Off-target screen S1P2, antagonist mode; format: cell-based; conditions: 10 µM, single point, duplicates
T10 construct: purchased Eurofins CEREP SA
T10 sequence (O95136 whole entry): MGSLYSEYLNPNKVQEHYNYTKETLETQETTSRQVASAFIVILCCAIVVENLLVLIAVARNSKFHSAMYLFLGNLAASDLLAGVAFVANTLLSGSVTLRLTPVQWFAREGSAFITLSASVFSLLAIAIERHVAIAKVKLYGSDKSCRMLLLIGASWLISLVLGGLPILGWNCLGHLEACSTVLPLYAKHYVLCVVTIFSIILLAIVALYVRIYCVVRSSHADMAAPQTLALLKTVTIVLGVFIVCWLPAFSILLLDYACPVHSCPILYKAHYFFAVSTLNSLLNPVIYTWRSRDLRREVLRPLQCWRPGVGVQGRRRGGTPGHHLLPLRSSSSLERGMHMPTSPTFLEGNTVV

T5 sequence (P23975 whole entry): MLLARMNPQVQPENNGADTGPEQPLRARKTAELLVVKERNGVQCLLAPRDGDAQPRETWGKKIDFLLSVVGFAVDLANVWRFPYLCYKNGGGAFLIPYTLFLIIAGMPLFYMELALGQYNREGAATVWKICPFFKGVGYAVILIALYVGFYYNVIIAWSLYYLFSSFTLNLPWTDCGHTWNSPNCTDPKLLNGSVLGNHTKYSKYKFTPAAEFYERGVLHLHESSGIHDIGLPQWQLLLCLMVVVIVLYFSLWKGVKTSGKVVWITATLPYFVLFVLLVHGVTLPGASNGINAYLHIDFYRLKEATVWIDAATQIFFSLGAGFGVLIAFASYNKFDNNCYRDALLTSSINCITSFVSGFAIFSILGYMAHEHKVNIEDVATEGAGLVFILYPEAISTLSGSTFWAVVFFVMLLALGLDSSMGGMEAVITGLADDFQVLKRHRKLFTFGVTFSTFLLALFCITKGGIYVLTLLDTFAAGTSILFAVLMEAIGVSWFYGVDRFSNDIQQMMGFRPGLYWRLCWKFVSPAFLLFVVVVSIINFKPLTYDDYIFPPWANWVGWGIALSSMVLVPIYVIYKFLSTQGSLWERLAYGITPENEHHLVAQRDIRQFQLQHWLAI
T2 sequence (P25021 whole entry): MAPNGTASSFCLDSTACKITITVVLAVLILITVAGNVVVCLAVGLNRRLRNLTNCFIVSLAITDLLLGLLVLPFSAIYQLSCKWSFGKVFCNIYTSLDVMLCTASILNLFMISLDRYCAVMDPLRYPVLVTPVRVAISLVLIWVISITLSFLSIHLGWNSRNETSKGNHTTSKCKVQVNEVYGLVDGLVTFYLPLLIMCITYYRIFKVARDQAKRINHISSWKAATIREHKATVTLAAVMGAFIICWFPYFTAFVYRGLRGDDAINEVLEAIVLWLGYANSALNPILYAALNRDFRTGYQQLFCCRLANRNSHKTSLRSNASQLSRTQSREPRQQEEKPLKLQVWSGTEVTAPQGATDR
T7 sequence (P08908 whole entry): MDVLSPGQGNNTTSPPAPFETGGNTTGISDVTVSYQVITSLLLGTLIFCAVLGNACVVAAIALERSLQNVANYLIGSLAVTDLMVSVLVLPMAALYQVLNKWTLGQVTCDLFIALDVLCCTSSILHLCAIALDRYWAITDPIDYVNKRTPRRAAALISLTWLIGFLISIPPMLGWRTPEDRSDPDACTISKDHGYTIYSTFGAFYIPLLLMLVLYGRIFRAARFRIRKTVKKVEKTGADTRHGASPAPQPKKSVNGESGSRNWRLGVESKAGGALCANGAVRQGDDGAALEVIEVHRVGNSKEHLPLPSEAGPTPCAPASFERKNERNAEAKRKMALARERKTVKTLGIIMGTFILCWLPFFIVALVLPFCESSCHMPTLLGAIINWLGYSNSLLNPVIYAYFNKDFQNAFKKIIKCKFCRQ
T6 sequence (P14416 whole entry): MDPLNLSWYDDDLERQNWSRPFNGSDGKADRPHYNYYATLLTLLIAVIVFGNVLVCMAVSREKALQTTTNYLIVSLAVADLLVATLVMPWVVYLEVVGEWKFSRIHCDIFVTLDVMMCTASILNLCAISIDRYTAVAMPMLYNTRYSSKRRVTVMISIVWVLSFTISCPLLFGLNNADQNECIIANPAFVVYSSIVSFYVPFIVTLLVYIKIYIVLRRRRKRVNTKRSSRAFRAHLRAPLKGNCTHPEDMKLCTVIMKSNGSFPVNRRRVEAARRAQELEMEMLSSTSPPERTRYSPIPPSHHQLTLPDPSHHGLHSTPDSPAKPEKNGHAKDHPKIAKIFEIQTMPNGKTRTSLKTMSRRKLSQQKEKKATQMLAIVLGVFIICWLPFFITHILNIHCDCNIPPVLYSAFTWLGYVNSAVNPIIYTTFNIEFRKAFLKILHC
T1 sequence (P43403 whole entry): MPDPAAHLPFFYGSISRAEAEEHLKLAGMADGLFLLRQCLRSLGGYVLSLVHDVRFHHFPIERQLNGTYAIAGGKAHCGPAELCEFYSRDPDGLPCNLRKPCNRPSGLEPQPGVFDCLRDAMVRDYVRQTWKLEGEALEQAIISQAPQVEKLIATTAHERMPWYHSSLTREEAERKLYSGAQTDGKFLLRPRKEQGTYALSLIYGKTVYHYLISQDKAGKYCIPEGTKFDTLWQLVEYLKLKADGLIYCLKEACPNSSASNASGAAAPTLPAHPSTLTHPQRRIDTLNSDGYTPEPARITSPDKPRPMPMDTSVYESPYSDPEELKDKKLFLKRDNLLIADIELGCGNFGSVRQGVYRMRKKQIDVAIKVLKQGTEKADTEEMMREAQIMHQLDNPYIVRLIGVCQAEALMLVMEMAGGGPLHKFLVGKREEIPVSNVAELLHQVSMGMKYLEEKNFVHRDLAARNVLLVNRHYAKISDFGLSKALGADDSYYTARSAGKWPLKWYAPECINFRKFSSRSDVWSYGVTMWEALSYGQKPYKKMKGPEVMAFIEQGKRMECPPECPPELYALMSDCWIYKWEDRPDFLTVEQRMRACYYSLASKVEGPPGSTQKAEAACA
T8 sequence (P35354 18-604): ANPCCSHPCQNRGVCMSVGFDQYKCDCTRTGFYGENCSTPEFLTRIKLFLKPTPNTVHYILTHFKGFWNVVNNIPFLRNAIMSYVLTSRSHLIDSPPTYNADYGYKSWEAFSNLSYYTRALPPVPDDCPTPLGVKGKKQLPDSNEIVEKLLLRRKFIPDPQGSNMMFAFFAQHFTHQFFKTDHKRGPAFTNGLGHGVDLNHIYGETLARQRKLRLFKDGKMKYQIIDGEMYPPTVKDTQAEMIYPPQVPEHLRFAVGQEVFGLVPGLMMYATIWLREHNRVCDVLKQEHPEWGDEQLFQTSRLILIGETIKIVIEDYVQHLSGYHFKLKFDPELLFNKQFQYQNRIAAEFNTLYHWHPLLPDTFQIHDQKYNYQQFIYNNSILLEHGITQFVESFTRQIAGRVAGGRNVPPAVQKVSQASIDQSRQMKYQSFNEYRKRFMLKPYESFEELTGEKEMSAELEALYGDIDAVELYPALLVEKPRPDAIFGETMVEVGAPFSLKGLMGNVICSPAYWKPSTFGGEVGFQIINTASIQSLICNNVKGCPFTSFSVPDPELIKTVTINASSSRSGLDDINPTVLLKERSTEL
T4 sequence (P30542 whole entry): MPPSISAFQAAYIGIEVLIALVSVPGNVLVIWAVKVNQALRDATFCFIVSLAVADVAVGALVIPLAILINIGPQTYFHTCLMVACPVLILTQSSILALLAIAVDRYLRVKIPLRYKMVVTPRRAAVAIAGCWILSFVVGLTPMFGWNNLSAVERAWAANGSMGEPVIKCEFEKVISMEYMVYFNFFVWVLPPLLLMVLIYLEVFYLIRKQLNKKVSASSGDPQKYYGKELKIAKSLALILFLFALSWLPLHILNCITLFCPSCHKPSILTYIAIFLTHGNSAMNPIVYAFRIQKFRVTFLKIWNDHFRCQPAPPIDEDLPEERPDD
T3 sequence (P21453 whole entry): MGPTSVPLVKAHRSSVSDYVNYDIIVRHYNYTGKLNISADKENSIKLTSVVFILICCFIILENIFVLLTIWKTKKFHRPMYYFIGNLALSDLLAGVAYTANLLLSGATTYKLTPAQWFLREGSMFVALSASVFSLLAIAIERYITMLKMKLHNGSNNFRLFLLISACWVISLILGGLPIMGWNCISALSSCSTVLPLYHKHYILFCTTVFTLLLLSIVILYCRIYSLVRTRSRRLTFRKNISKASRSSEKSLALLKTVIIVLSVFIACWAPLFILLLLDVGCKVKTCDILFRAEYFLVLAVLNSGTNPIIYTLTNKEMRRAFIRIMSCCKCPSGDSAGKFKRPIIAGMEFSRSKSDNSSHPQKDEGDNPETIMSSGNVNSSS

Structure (SMILES): O=C(OCc1ccc(OC(F)(F)F)cc1)N1C[C@@H]2CN(C(=O)c3ccc4[nH]nnc4c3)C[C@H]2C1 [Compound 13, (3aS,6aS)-5-(1H-Benzotriazole-5-carbonyl)-hexahydro-pyrrolo[3,4-c]pyrrole-2-carboxylic acid 4-trifluoromethoxy-benzyl ester]
- ZAP70 (h) [% inhib] (ZAP70): 9 % inhib
- Histamine H2 receptor (h) [% inhib] (Histamine H2 receptor): 12 % inhib
- ERG b-wave amplitude (I/R model rats; 7 days (p < 0.001)): significantly lower
- ERG b-wave amplitude (I/R model rats; 14 days (p < 0.001)): significantly declined
- ERG a-wave amplitude (I/R model rats; 7 days, all light intensities (p < 0.050)): significant decrease
- ERG a-wave amplitude (I/R model rats; 14 days, all light intensities (p > 0.050), vs I/R increased at 0.1 cd s/m^2 (p = 0.027)): comparable to the control ones
- GCL thickness (I/R model rats; I/R + ATX-i group, 20 mg/kg food admix, 7 days, I/R 4.03 ± 0.84, control 6.28 ± 1.57): 4.34 ± 1.63 µm
- β-III tubulin protein level (Western Blot), retina (I/R model rats; I/R + ATX-i group, 7 days, I/R 0.18 ± 0.17, control 1.39 ± 0.52): 0.28 ± 0.30
- Iba1 protein level (Western Blot), retina (I/R model rats; I/R + ATX-i group, 7 days, I/R 0.61 ± 0.05, control 0.47 ± 0.11): 0.50 ± 0.21
- GFAP+ area, retina (I/R model rats; I/R + ATX-i group, 7 days, I/R 3.44 ± 1.52, control 2.46 ± 1.41): 2.98 ± 1.13 area [%]/section
- GFAP protein level (Western Blot), retina (I/R model rats; I/R + ATX-i group, 7 days, I/R 4.00 ± 1.95, control 0.71 ± 0.33): 3.90 ± 1.14
- Cleaved caspase 3+ apoptotic RGCs (I/R model rats; I/R + ATX-i group, 7 days, I/R 5.97 ± 1.93, control 2.62 ± 1.59): 6.21 ± 1.62 cells/mm
- Brn-3a+ RGC number, retina (I/R model rats; I/R + ATX-i group, 7 days, I/R 10.95 ± 2.48, control 48.29 ± 3.94, p = 0.008 vs I/R): 17.61 ± 1.63 cells/mm
- ED1+ and Iba1+ co-labeled cells, retina (I/R model rats; I/R + ATX-i group, 7 days, I/R 34.74 ± 6.57, control 0.81 ± 0.91, p = 0.045 vs I/R): 26.91 ± 4.48 cells/mm
- Iba1+ microglia, retina (I/R model rats; I/R + ATX-i group, 7 days, I/R 38.44 ± 7.75, control 5.65 ± 2.29, p = 0.045 vs I/R): 29.04 ± 5.19 cells/mm
- β-III tubulin protein level (Western Blot), retina (I/R model rats; I/R + ATX-i group, 14 days, I/R 0.06 ± 0.03, control 0.60 ± 0.08): 0.13 ± 0.08
- Iba1 protein level (Western Blot), retina (I/R model rats; I/R + ATX-i group, 14 days, I/R 0.95 ± 0.54, control 0.28 ± 0.19): 0.69 ± 0.44
- GFAP protein level (Western Blot), retina (I/R model rats; I/R + ATX-i group, 14 days, I/R 1.60 ± 0.19, control 0.19 ± 0.06): 1.31 ± 0.66
- GCL thickness (I/R model rats; I/R + ATX-i group, 14 days, I/R 2.76 ± 0.16, control 5.28 ± 0.43, p = 0.003 vs I/R): 3.54 ± 0.34 µm
- Activated microglia (ED1+ and Iba1+), optic nerve (I/R model rats; I/R + ATX-i group, 14 days, I/R 5.28 ± 0.76, control 0.06 ± 0.06): 5.71 ± 1.04 cells/image
- Cleaved caspase 3+ cells (I/R model rats; I/R + ATX-i group, 14 days, I/R 5.38 ± 0.83, control 2.58 ± 0.72): 5.02 ± 1.52 cells/mm
- Iba1+ cells, optic nerve (I/R model rats; I/R + ATX-i group, 14 days, I/R 5.65 ± 0.75, control 2.74 ± 1.06): 6.10 ± 1.09 cells/image
- Brn-3a+ RGC number, retina (I/R model rats; I/R + ATX-i group, 14 days, I/R 5.81 ± 2.85, control 56.32 ± 11.74, p = 0.017 vs I/R): 21.62 ± 8.84 cells/mm
- GFAP+ area, retina (I/R model rats; I/R + ATX-i group, 14 days, I/R 7.02 ± 2.71, control 3.35 ± 0.98): 5.01 ± 1.70 area [%]/section
- ED1+ and Iba1+ activated microglia, retina (I/R model rats; I/R + ATX-i group, 14 days, I/R 34.20 ± 9.12, control 2.99 ± 1.26): 28.27 ± 7.63 cells/mm
- Iba1+ microglia, retina (I/R model rats; I/R + ATX-i group, 14 days, I/R 45.5 ± 11.78, control 26.28 ± 3.33): 41.17 ± 9.33 cells/mm
- GFAP score, optic nerve (I/R model rats; I/R + ATX-i group, 14 days, score 0-2, I/R 1.13 ± 0.13, control 0.89 ± 0.30): 1.23 ± 0.25
- Optic nerve LFB score (I/R model rats; I/R + ATX-i group, 14 days, score 0-2, I/R 1.19 ± 0.25, control 0.54 ± 0.42): 1.09 ± 0.17
- Optic nerve SMI-32 score (I/R model rats; I/R + ATX-i group, 14 days, score 0-2, I/R 1.27 ± 0.31, control 0.47 ± 0.27): 1.05 ± 0.21
- Optic nerve H&E score (I/R model rats; I/R + ATX-i group, 14 days, score 0-4, I/R 2.43 ± 0.37, control 0.77 ± 0.27): 2.25 ± 0.44
- S1P1 (h), agonist mode [% pos ctrl] (S1P1): 5 % pos ctrl
- Adenosine A1 respetor (h) [% inhib] (Adenosine A1 respetor): 1 % inhib
- Norepinephrine transporter (h) [% inhib] [1]: 20 % inhib
- Sigma (h) [% inhib] (Sigma): 38 % inhib
- Dopamine D2 receptor (h) [% inhib] (Dopamine D2 receptor): 4 % inhib
- 5HT1A (h) [% inhib] (5HT1A): -20 % inhib
- IC50 (plasma ATX): ~1.47 nM
- Cyclooxygenase 2 (h) [% inhib] (Cyclooxygenase 2): 1 % inhib
- HIV-1 protease (h) [% inhib] (HIV-1 protease): 0 % inhib
- ML3R (h) [% inhib] (ML3R): 48 % inhib
- Carbonic anhdrase II (h) [% inhib] (Carbonic anhdrase II): -6 % inhib
- GABA-A (benzodiazepine site) (r) [% inhib] [2]: -26 % inhib
- S1P2 (h), antago. mode [% inhib] (S1P2): 45 % inhib

From article PMC8807399, “Synthesis, Characterization, and in vivo Evaluation of a Novel Potent Autotaxin-Inhibitor” (Frontiers in Pharmacology, 2022)
